Measurements taken from patent publication US12577206B2 (BRISTOL-MYERS SQUIBB COMPANY, priority 2020, dated 2026).

Tests used:
[1] = target: T1, human FPR1 (Homo sapiens, UniProt P21462); assay: FPR1 cyclic adenosine monophosphate (cAMP) assay; format: cell-based; conditions: CHO cells overexpressing human FPR1; forskolin 10 μM; inhibition of cAMP production; HTRF; read-out: hFPR1 cAMP2 EC50
T1 sequence (P21462 1-350): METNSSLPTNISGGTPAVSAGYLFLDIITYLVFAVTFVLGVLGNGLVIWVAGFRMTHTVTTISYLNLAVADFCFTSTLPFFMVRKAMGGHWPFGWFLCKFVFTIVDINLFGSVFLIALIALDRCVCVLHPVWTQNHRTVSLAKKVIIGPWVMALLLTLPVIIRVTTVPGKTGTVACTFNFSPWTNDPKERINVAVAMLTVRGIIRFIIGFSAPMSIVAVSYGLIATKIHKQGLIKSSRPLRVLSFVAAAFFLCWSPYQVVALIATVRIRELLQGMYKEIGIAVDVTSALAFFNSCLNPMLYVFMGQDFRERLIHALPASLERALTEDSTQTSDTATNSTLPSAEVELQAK
Method in brief: (§1)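 CHO cells overexpressing human FPR1 (4,000/well) or FPR2 (2,000/well) were incubated 30 min at room temperature with compound (0.020 nM to 100 μM, 1% DMSO), IBMX 200 μM, and forskolin at 10 μM (FPR1) or 5 μM (FPR2), all final. HTRF cAMP read-out; inhibition fitted by 4-parameter logistic equation.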

[2] = target: T2, human FPR2 (Homo sapiens, UniProt P25090); assay: FPR2 cyclic adenosine monophosphate (cAMP) assay; format: cell-based; conditions: CHO cells overexpressing human FPR2; forskolin 5 μM; inhibition of cAMP production; HTRF; read-out: hFPR2 cAMP2 EC50
T2 sequence (P25090 1-351): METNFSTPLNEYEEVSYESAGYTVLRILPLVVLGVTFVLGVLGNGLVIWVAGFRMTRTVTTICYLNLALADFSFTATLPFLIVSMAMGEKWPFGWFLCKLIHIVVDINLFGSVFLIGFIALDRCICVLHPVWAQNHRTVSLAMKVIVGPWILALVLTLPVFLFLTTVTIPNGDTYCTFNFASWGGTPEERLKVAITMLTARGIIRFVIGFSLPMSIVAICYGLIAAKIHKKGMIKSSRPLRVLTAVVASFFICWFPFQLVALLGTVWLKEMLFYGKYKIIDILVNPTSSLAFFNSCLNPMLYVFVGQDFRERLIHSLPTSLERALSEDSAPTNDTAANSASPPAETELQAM
Method in brief: as §1

COCCOc1ccc(C(F)(F)F)c(-n2c(=O)c(NC(=O)c3ccc(OC(F)F)cc3)c(-c3c(F)cc(OC)cc3F)n2C)n1 [Example 278, N-[5-(2,6-difluoro-4-methoxyphenyl)-2-[6-(2-methoxyethoxy)-3-(trifluoromethyl)pyridin-2-yl]-1-methyl-3-oxo-2,3-dihydro-1H-pyrazol-4-yl]-4-(difluoromethoxy)benzamide]
EC50 [1]: > 10000 nM | EC50 [2]: 2 nM

COc1cc(F)c(-c2c(NC(=O)c3ccc(OC(F)F)cc3)c(=O)n(-c3nc(NCC(C)(C)C(N)=O)ccc3C(F)(F)F)n2C)c(F)c1 [Example 279, N-(2-{6-[(2-carbamoyl-2,2-dimethylethyl)amino]-3-(trifluoromethyl)pyridin-2-yl}-5-(2,6-difluoro-4-methoxyphenyl)-1-methyl-3-oxo-2,3-dihydro-1H-pyrazol-4-yl)-4-(difluoromethoxy)benzamide]
EC50 [1]: > 10000 nM | EC50 [2]: 2 nM

COc1cc(F)c(-c2c(NC(=O)c3ccc(OC(F)F)cc3)c(=O)n(-c3nc(N4CC[C@H](O)C4)ccc3C(F)(F)F)n2C)c(F)c1 [Example 280, N-[5-(2,6-difluoro-4-methoxyphenyl)-2-{6-[(3S)-3-hydroxypyrrolidin-1-yl]-3-(trifluoromethyl)pyridin-2-yl}-1-methyl-3-oxo-2,3-dihydro-1H-pyrazol-4-yl]-4-(difluoromethoxy)benzamide]
EC50 [1]: 2700 nM | EC50 [2]: 2 nM

Cn1c(-c2ccc(OC(F)F)cc2)c(NC(=O)c2ccc(OC(F)F)cc2)c(=O)n1-c1ncccc1C(F)(F)F [Example 281, 4-(difluoromethoxy)-N-{5-[4-(difluoromethoxy)phenyl]-1-methyl-3-oxo-2-[3-(trifluoromethyl)pyridin-2-yl]-2,3-dihydro-1H-pyrazol-4-yl}benzamide]
EC50 [1]: 500 nM | EC50 [2]: 18 nM

COc1cc(F)c(-c2c(NC(=O)c3ccc(OC(F)F)cc3)c(=O)n(-c3nc(N4CCC(C)(O)C4)ccc3C(F)(F)F)n2C)c(F)c1 (centres unmarked) [Example 282, N-[5-(2,6-difluoro-4-methoxyphenyl)-2-[6-(3-hydroxy-3-methylpyrrolidin-1-yl)-3-(trifluoromethyl)pyridin-2-yl]-1-methyl-3-oxo-2,3-dihydro-1H-pyrazol-4-yl]-4-(difluoromethoxy)benzamide]
EC50 [1]: 2100 nM | EC50 [2]: 2 nM

COc1cc(F)c(-c2c(NC(=O)c3ccc(OC(F)F)cc3)c(=O)n(-c3nc(NCC4(O)CC4)ccc3C(F)(F)F)n2C)c(F)c1 [Example 283, N-[5-(2,6-difluoro-4-methoxyphenyl)-2-(6-{[(1-hydroxycyclopropyl)methyl]amino}-3-(trifluoromethyl)pyridin-2-yl)-1-methyl-3-oxo-2,3-dihydro-1H-pyrazol-4-yl]-4-(difluoromethoxy)benzamide]
EC50 [1]: > 10000 nM | EC50 [2]: 1 nM

COc1cc(F)c(-c2c(NC(=O)c3ccc(OC(F)F)cc3)c(=O)n(-c3nc(N4CCC(C)(O)C4)ccc3C(F)(F)F)n2C)c(F)c1 (centres unmarked) [Example 284, N-[5-(2,6-difluoro-4-methoxyphenyl)-2-[6-(3-hydroxy-3-methylpyrrolidin-1-yl)-3-(trifluoromethyl)pyridin-2-yl]-1-methyl-3-oxo-2,3-dihydro-1H-pyrazol-4-yl]-4-(difluoromethoxy)benzamide]
EC50 [1]: 1800 nM | EC50 [2]: 2 nM

COc1cc(F)c(-c2c(NC(=O)c3ccc(OC(F)F)cc3)c(=O)n(-c3nc(OCCO)ccc3C(F)(F)F)n2C)c(F)c1 [Example 285, N-[5-(2,6-difluoro-4-methoxyphenyl)-2-[6-(2-hydroxyethoxy)-3-(trifluoromethyl)pyridin-2-yl]-1-methyl-3-oxo-2,3-dihydro-1H-pyrazol-4-yl]-4-(difluoromethoxy)benzamide]
EC50 [1]: > 10000 nM | EC50 [2]: 2 nM

CCOc1ccc(C(F)(F)F)c(-n2c(=O)c(NC(=O)c3ccc(OC(F)F)cc3)c(-c3c(F)cc(OC)cc3F)n2C)n1 [Example 286, N-[5-(2,6-difluoro-4-methoxyphenyl)-2-[6-ethoxy-3-(trifluoromethyl)pyridin-2-yl]-1-methyl-3-oxo-2,3-dihydro-1H-pyrazol-4-yl]-4-(difluoromethoxy)benzamide]
EC50 [1]: > 5000 nM | EC50 [2]: 3 nM

COc1cc(F)c(-c2c(NC(=O)c3ccc(OC(F)F)cc3)c(=O)n(-c3nc(OCC4CC4)ccc3C(F)(F)F)n2C)c(F)c1 [Example 287, N-{2-[6-(cyclopropylmethoxy)-3-(trifluoromethyl)pyridin-2-yl]-5-(2,6-difluoro-4-methoxyphenyl)-1-methyl-3-oxo-2,3-dihydro-1H-pyrazol-4-yl}-4-(difluoromethoxy)benzamide]
EC50 [1]: > 5000 nM | EC50 [2]: 13 nM

COc1cc(F)c(-c2c(NC(=O)c3ccc(OC(F)F)cc3)c(=O)n(-c3nc(OCC(C)(C)O)ccc3C(F)(F)F)n2C)c(F)c1 [Example 288, N-[5-(2,6-difluoro-4-methoxyphenyl)-2-[6-(2-hydroxy-2-methylpropoxy)-3-(trifluoromethyl)pyridin-2-yl]-1-methyl-3-oxo-2,3-dihydro-1H-pyrazol-4-yl]-4-(difluoromethoxy)benzamide]
EC50 [1]: > 10000 nM | EC50 [2]: 1 nM

COC(=O)COc1ccc(C(F)(F)F)c(-n2c(=O)c(NC(=O)c3ccc(OC(F)F)cc3)c(-c3c(F)cc(OC)cc3F)n2C)n1 [Example 289, methyl 2-({6-[3-(2,6-difluoro-4-methoxyphenyl)-4-[4-(difluoromethoxy)benzamido]-2-methyl-5-oxo-2,5-dihydro-1H-pyrazol-1-yl]-5-(trifluoromethyl)pyridin-2-yl}oxy)acetate]
EC50 [1]: > 10000 nM | EC50 [2]: 4 nM

COc1cc(F)c(-c2c(NC(=O)c3ccc(OC(F)F)cc3)c(=O)n(-c3nc(NCC4(CO)CCC4)ccc3C(F)(F)F)n2C)c(F)c1 [Example 290, N-[5-(2,6-difluoro-4-methoxyphenyl)-2-[6-({[1-(hydroxymethyl)cyclobutyl]-methyl}amino)-3-(trifluoromethyl)pyridin-2-yl]-1-methyl-3-oxo-2,3-dihydro-1H-pyrazol-4-yl]-4-(difluoromethoxy)benzamide]
EC50 [1]: > 10000 nM | EC50 [2]: 1 nM

COc1cc(F)c(-c2c(NC(=O)c3ccc(OC(F)F)cc3)c(=O)n(-c3nc(C(C)(C)O)ccc3C#N)n2C)c(F)c1 [Example 291, N-{2-[3-cyano-6-(2-hydroxypropan-2-yl)pyridin-2-yl]-5-(2,6-difluoro-4-methoxyphenyl)-1-methyl-3-oxo-2,3-dihydro-1H-pyrazol-4-yl}-4-(difluoromethoxy)benzamide]
EC50 [1]: > 10000 nM | EC50 [2]: 2 nM

COc1cc(F)c(-c2c(NC(=O)c3ccc(OC(F)F)cc3)c(=O)n(-c3nc(N4CC[C@@H](CO)C4)ccc3C(F)(F)F)n2C)c(F)c1 [Example 292, N-[5-(2,6-difluoro-4-methoxyphenyl)-2-{6-[(3R)-3-(hydroxymethyl)pyrrolidin-1-yl]-3-(trifluoromethyl)pyridin-2-yl}-1-methyl-3-oxo-2,3-dihydro-1H-pyrazol-4-yl]-4-(difluoromethoxy)benzamide]
EC50 [1]: 4100 nM | EC50 [2]: 2 nM

COc1ccc(-c2c(NC(=O)c3ccc(OC(F)F)cc3)c(=O)n(-c3ncccc3C(F)(F)F)n2C)cc1F [Example 293, 4-(difluoromethoxy)-N-[5-(3-fluoro-4-methoxyphenyl)-1-methyl-3-oxo-2-[3-(trifluoromethyl)pyridin-2-yl]-2,3-dihydro-1H-pyrazol-4-yl]benzamide]
EC50 [1]: 1200 nM | EC50 [2]: 9 nM

COc1ccc(-c2c(NC(=O)c3ccc(OC(F)F)cc3)c(=O)n(-c3ncccc3Cl)n2C)cc1F [Example 294, N-[2-(3-chloropyridin-2-yl)-5-(3-fluoro-4-methoxyphenyl)-1-methyl-3-oxo-2,3-dihydro-1H-pyrazol-4-yl]-4-(difluoromethoxy)benzamide]
EC50 [1]: 1400 nM | EC50 [2]: 32 nM

COc1ccc(-c2c(NC(=O)c3ccc(OC(F)F)cc3)c(=O)n(-c3nc(Cl)ccc3C(F)(F)F)n2C)c(F)c1 [Example 295, N-{2-[6-chloro-3-(trifluoromethyl)pyridin-2-yl]-5-(2-fluoro-4-methoxyphenyl)-1-methyl-3-oxo-2,3-dihydro-1H-pyrazol-4-yl}-4-(difluoromethoxy)benzamide]
EC50 [1]: 1500 nM | EC50 [2]: 1 nM

COc1cc(O)c(-c2c(NC(=O)c3ccc(OC(F)F)cc3)c(=O)n(-c3nc(Cl)ccc3Cl)n2C)c(F)c1 [Example 296, N-[2-(3,6-dichloropyridin-2-yl)-5-(2-fluoro-6-hydroxy-4-methoxyphenyl)-1-methyl-3-oxo-2,3-dihydro-1H-pyrazol-4-yl]-4-(difluoromethoxy)benzamide]
EC50 [1]: > 10000 nM | EC50 [2]: 33 nM
